Measured values taken from article doi:10.1101/2023.10.03.560722, “Drug Discovery in Low Data Regimes: Leveraging a Computational Pipeline for the Discovery of Novel SARS-CoV-2 Nsp14-MTase Inhibitors” (bioRxiv, 2024).
Like-named read-outs stand apart in the source and are kept apart here.

Columns and labels:
PRMT4 = target: T1, PRMT4 (Homo sapiens, UniProt Q86X55); experiment: human MTase selectivity panel; format: biochemical
T1 sequence (Q86X55 1-608): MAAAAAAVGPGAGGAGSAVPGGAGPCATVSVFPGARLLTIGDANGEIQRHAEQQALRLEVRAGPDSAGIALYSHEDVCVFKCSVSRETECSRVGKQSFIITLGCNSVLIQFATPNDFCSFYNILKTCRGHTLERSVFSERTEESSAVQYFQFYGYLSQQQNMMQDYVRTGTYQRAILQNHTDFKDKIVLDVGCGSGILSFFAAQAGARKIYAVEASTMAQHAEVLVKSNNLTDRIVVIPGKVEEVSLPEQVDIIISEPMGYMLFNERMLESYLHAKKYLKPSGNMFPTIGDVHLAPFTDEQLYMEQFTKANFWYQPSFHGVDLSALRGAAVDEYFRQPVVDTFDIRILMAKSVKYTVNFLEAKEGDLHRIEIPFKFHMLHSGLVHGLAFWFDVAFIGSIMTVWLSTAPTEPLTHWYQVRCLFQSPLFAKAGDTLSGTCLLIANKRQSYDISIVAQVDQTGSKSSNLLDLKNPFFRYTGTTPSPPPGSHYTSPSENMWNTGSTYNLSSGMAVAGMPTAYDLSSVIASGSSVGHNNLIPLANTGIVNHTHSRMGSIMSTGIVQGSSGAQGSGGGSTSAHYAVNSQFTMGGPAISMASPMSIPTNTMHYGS

SARS-CoV-2 = format: cell-based; settings: Calu-3 cells, lung epithelial SARS-CoV-2 infection model
SMYD3 = target: T2, SMYD3 (Homo sapiens, UniProt Q9H7B4); experiment: human MTase selectivity panel; format: biochemical
T2 sequence (Q9H7B4 1-428): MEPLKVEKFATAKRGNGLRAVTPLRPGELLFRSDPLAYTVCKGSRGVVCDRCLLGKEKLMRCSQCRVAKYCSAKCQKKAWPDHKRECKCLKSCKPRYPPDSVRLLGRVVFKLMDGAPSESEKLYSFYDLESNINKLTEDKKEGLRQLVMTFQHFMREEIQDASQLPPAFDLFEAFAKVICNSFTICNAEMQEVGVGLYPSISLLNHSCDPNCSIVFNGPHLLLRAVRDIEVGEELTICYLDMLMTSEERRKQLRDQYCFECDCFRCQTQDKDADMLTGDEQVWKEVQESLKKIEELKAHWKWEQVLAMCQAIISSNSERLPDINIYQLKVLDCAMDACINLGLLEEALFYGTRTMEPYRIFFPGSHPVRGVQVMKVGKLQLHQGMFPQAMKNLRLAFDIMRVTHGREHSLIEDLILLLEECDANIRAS

PRMT9 = target: T3, PRMT9 (Homo sapiens, UniProt Q6P2P2); experiment: human MTase selectivity panel; format: biochemical
T3 sequence (Q6P2P2 1-845): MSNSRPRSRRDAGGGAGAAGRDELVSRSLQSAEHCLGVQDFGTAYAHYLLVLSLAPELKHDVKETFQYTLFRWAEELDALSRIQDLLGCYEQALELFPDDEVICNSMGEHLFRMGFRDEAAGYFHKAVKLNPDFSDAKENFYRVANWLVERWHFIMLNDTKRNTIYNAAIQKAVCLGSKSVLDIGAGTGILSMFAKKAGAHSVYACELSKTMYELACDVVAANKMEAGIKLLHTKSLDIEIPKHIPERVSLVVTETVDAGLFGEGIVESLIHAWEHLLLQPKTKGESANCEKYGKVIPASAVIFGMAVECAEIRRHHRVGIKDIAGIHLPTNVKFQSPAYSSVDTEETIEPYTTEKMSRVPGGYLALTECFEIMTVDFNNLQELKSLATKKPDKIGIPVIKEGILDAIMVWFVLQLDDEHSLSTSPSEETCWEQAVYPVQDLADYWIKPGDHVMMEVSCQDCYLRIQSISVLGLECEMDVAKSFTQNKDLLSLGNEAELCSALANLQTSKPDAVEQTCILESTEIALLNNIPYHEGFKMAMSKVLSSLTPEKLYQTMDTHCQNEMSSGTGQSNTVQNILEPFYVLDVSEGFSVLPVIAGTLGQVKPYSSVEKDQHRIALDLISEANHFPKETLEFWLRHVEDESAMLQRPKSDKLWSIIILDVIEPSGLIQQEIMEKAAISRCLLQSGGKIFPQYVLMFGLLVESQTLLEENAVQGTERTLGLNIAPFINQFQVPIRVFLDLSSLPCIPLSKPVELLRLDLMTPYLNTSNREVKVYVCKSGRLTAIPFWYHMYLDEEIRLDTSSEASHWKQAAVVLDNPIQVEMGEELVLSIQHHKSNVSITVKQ

PRMT3 = PRMT3 (Homo sapiens, UniProt O60678); experiment: human MTase selectivity panel; format: biochemical
SUV420H1 = SUV420H1 (Homo sapiens, UniProt Q4FZB7); experiment: human MTase selectivity panel; format: biochemical
[1] = average ± SD, read-out: Activity (%) at 10 µM Average
[2] = read-out: Activity (%) at 10 µM Replicate 1
[3] = read-out: Activity (%) at 10 µM Replicate 2
[4] = read-out: Activity (%) at 10 µM Replicate 3

Sequence of SUV420H1 (Q4FZB7 whole entry): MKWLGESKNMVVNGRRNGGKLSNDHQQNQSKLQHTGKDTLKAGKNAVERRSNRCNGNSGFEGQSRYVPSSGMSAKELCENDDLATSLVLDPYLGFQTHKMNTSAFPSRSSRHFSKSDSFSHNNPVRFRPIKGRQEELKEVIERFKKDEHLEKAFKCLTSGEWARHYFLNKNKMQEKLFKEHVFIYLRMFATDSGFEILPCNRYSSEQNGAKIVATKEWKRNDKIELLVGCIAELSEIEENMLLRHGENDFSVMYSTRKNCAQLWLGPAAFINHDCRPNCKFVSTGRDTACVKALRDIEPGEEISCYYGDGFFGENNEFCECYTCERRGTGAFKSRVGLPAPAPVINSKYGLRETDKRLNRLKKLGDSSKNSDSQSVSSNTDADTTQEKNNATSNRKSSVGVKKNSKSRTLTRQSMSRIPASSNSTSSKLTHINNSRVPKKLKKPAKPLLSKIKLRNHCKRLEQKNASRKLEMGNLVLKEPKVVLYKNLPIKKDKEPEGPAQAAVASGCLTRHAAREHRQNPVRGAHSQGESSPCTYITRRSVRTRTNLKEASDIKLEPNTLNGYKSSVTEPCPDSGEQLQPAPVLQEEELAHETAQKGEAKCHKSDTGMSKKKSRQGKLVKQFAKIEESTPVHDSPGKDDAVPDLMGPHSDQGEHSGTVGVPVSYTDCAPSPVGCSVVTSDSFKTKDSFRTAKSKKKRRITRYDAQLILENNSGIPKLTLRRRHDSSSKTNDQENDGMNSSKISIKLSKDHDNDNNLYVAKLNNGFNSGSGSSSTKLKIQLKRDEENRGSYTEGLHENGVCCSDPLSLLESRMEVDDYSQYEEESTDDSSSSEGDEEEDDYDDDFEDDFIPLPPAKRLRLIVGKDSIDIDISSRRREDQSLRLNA
Sequence of PRMT3 (O60678 whole entry): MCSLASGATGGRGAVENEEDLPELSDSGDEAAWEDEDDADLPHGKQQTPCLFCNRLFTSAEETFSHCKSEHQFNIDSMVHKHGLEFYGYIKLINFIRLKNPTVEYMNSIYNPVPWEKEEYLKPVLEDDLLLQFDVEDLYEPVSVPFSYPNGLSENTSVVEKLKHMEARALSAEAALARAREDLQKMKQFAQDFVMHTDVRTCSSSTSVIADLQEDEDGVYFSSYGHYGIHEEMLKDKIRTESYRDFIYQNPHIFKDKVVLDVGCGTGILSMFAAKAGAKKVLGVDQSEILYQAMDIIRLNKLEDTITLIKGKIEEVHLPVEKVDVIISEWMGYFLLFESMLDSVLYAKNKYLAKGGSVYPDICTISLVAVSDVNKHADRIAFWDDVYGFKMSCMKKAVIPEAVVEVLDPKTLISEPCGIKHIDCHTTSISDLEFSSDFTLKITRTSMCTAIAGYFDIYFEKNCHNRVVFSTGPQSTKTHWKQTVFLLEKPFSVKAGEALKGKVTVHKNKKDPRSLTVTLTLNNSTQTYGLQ

## Nc1ncnc2c1ncn2[C@@H]1O[C@H](CSCc2ccc(Cl)cc2)[C@@H](O)[C@H]1O [NSC620333]
PRMT4; [1]
  activity at 10 µM: 97 ± 3%
PRMT4; [2]
  activity at 10 µM: 96%
PRMT4; [3]
  activity at 10 µM: 95%
PRMT4; [4]
  activity at 10 µM: 101%
SARS-CoV-2
  anti-SARS-CoV-2 activity: demonstrated anti-SARS-CoV-2 activity
SMYD3; [1]
  activity at 10 µM: 100 ± 9%
SMYD3; [2]
  activity at 10 µM: 101%
SMYD3; [3]
  activity at 10 µM: 108%
SMYD3; [4]
  activity at 10 µM: 91%
PRMT9; [1]
  activity at 10 µM: 117 ± 3%
PRMT9; [2]
  activity at 10 µM: 118%
PRMT9; [3]
  activity at 10 µM: 118%
PRMT9; [4]
  activity at 10 µM: 113%
PRMT3; [1]
  activity at 10 µM: 79 ± 5%
PRMT3; [2]
  activity at 10 µM: 75%
PRMT3; [3]
  activity at 10 µM: 78%
PRMT3; [4]
  activity at 10 µM: 85%
SUV420H1; [1]
  activity at 10 µM: 93 ± 8%
SUV420H1; [2]
  activity at 10 µM: 84%
SUV420H1; [3]
  activity at 10 µM: 97%
SUV420H1; [4]
  activity at 10 µM: 98%
